Each block holds one molecule with its values, some of them ahead of it.
Columns and labels:
[1] = Drug concentration at steady state in human at 1250 mg, po QD after 24 hrs; assay type: ADME, organism-based; details: in vivo, read-out: Css
[2] = molecular target: T1, ATP-binding cassette sub-family C member 4 (Homo sapiens, UniProt O15439); test: Inhibition of human MRP4 overexpressed in Sf9 cell membrane vesicles assessed as uptake of [3H]-estradiol-17beta-D-glucuronide in presence of ATP and GSH measured after 20 mins by membrane vesicle transport assay; assay type: ADME, cell-based
T1 sequence (O15439 whole entry): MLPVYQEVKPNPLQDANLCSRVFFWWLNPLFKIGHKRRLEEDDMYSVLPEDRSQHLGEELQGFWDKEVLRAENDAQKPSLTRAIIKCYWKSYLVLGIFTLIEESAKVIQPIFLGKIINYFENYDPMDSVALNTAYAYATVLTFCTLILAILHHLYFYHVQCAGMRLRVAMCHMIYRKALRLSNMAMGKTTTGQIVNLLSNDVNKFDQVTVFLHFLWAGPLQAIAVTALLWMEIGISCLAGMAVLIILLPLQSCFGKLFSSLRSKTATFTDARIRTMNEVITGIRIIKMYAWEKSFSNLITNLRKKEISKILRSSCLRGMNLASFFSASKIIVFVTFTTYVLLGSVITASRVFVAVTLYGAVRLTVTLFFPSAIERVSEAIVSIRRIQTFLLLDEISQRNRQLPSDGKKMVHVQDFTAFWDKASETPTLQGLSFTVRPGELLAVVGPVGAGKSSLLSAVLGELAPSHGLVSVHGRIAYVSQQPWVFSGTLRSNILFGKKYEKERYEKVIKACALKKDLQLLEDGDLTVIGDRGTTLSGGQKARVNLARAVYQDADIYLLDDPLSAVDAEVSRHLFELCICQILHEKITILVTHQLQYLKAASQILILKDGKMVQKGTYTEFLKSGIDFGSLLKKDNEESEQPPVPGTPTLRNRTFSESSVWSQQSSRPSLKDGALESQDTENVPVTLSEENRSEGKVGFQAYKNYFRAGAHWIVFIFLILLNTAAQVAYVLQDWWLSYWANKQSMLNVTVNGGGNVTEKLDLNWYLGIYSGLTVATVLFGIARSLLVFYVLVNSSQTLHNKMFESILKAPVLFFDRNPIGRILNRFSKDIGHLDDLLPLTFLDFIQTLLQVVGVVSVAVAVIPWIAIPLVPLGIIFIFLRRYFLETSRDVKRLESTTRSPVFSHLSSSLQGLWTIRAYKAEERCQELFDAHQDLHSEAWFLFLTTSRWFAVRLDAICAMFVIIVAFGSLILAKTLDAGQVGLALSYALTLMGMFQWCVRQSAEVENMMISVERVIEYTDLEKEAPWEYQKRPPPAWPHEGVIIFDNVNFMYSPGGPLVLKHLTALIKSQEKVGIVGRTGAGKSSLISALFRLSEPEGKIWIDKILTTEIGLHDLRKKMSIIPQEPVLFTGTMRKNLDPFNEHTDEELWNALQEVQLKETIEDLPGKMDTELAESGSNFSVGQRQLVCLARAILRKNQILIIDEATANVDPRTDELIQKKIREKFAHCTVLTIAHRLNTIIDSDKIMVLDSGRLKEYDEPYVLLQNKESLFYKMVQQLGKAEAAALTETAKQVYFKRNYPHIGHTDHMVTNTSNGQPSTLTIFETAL

[3] = molecular target: ATP-binding cassette sub-family C member 2 (Homo sapiens, UniProt Q92887); test: Inhibition of human MRP2 overexpressed in Sf9 cell membrane vesicles assessed as uptake of [3H]-estradiol-17beta-D-glucuronide in presence of ATP and GSH measured after 20 mins by membrane vesicle transport assay
Chain of ATP-binding cassette sub-family C member 2 (Q92887 whole entry): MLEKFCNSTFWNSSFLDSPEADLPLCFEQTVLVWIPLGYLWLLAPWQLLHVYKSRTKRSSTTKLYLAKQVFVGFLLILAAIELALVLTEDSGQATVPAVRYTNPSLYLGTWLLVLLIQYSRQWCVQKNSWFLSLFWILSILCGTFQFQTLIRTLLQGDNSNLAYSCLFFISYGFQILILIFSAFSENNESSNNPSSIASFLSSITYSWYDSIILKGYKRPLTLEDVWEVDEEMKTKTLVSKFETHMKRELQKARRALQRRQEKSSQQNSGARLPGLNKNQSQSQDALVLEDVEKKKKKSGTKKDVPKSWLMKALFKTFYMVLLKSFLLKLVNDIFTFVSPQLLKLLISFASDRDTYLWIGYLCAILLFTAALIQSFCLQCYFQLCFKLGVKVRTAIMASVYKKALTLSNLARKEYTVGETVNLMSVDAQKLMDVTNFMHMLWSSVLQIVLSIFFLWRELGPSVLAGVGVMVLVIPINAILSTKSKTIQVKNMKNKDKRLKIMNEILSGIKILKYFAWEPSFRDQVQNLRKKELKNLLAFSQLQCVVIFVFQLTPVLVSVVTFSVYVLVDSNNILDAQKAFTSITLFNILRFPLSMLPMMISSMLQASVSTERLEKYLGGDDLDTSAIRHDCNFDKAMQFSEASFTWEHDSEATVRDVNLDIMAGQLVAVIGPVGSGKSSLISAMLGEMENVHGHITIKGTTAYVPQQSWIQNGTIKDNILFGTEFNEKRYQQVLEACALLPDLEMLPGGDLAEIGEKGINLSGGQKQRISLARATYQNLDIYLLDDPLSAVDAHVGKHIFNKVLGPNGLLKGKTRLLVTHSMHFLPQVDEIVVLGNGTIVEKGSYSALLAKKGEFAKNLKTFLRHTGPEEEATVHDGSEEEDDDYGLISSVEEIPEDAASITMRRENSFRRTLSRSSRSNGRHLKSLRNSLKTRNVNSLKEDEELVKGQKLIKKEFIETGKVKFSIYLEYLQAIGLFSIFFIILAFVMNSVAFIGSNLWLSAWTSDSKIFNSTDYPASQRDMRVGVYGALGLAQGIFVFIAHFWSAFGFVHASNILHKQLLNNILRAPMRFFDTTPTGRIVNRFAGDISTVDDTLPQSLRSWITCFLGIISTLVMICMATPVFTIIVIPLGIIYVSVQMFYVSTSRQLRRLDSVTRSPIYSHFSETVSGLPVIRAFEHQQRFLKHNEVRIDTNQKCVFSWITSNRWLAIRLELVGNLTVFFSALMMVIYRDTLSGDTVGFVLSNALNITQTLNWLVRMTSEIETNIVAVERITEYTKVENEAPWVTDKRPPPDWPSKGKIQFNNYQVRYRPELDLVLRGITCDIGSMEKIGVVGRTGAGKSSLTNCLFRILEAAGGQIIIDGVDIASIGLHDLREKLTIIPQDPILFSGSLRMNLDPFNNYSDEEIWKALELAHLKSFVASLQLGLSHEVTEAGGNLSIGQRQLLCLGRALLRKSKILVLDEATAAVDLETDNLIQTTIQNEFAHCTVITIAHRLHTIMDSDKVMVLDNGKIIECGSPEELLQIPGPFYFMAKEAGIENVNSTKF

[4] = molecular target: ATP-binding cassette sub-family C member 3 (Homo sapiens, UniProt O15438); test: Inhibition of human MRP3 overexpressed in Sf9 insect cell membrane vesicles assessed as uptake of [3H]-estradiol-17beta-D-glucuronide in presence of ATP and GSH measured after 10 mins by membrane vesicle transport assay; assay type: ADME, cell-based
Chain of ATP-binding cassette sub-family C member 3 (O15438 whole entry): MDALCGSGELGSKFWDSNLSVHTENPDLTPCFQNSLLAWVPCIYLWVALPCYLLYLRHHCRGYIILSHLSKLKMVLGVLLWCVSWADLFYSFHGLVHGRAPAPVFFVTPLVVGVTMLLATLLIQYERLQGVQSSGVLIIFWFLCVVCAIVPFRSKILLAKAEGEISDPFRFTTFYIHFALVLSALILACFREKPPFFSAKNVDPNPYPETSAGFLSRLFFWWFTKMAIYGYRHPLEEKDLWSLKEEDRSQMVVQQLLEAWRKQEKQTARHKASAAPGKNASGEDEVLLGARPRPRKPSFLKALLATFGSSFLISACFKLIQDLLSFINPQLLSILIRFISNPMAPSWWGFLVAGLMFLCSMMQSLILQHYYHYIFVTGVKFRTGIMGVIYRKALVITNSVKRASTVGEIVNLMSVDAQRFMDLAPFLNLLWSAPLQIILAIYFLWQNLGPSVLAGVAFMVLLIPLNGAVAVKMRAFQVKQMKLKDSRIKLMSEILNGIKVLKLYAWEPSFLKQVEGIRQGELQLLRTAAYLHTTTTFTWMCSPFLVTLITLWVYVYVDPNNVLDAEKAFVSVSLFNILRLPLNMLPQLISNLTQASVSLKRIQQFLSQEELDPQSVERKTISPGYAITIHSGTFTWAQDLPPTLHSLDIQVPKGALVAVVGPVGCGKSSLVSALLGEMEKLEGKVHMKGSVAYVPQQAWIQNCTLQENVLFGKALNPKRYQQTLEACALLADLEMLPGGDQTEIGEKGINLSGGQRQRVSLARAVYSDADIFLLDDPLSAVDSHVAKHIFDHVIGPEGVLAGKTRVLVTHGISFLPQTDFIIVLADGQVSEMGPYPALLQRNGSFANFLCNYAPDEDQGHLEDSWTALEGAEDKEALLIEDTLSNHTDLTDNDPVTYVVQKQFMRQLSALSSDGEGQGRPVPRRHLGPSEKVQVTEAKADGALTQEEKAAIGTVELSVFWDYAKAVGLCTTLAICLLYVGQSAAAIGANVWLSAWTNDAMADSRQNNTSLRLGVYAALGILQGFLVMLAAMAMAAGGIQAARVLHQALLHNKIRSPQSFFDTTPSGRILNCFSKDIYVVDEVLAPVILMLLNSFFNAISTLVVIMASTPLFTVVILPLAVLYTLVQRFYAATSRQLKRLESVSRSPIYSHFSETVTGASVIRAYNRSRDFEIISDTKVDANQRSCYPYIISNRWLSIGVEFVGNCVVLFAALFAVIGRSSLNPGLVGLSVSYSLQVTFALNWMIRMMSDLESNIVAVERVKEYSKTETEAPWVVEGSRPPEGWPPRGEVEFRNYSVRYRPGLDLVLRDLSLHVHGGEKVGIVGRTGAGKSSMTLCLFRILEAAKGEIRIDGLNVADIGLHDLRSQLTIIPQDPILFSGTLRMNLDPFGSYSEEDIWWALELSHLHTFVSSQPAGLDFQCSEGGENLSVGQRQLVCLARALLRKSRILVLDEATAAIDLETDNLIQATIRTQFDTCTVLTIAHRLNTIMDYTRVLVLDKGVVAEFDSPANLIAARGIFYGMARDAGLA

[5] = Ratio of drug concentration at steady state in human at 1250 mg, po QD after 24 hrs to IC50 for human BSEP overexpressed in Sf9 insect cells; assay type: ADME, organism-based; details: in vivo
[6] = AUC in human at 1250 mg, po QD after 24 hrs; assay type: ADME, organism-based; design: time < 24 hr, dose 1250 mg, route oral; details: in vivo
[7] = AUC in human at 50 ug, sc BID/TID co-treated with 50 to 500 ug, sc TID of sandostatin LAR measured after 8 hrs; assay type: ADME, organism-based; design: dose 50 ug, time < 8 hr, route subcutaneous; details: in vivo
[8] = Ratio of drug concentration at steady state in human at 50 ug, sc BID/TID co-treated with 50 to 500 ug, sc TID of sandostatin LAR measured after 8 hrs to IC50 for human BSEP overexpressed in Sf9 insect cells; assay type: ADME, organism-based; details: in vivo
[9] = Drug concentration at steady state in human at 50 ug, sc BID/TID co-treated with 50 to 500 ug, sc TID of sandostatin LAR measured after 8 hrs; assay type: ADME, organism-based; details: in vivo, read-out: Css
Bile salt export pump = Bile salt export pump (Homo sapiens, UniProt O95342); test: Inhibition of human BSEP overexpressed in Sf9 cell membrane vesicles assessed as uptake of [3H]-taurocholate in presence of ATP measured after 15 to 20 mins by membrane vesicle transport assay; assay type: ADME, cell-based
Chain of Bile salt export pump (O95342 whole entry): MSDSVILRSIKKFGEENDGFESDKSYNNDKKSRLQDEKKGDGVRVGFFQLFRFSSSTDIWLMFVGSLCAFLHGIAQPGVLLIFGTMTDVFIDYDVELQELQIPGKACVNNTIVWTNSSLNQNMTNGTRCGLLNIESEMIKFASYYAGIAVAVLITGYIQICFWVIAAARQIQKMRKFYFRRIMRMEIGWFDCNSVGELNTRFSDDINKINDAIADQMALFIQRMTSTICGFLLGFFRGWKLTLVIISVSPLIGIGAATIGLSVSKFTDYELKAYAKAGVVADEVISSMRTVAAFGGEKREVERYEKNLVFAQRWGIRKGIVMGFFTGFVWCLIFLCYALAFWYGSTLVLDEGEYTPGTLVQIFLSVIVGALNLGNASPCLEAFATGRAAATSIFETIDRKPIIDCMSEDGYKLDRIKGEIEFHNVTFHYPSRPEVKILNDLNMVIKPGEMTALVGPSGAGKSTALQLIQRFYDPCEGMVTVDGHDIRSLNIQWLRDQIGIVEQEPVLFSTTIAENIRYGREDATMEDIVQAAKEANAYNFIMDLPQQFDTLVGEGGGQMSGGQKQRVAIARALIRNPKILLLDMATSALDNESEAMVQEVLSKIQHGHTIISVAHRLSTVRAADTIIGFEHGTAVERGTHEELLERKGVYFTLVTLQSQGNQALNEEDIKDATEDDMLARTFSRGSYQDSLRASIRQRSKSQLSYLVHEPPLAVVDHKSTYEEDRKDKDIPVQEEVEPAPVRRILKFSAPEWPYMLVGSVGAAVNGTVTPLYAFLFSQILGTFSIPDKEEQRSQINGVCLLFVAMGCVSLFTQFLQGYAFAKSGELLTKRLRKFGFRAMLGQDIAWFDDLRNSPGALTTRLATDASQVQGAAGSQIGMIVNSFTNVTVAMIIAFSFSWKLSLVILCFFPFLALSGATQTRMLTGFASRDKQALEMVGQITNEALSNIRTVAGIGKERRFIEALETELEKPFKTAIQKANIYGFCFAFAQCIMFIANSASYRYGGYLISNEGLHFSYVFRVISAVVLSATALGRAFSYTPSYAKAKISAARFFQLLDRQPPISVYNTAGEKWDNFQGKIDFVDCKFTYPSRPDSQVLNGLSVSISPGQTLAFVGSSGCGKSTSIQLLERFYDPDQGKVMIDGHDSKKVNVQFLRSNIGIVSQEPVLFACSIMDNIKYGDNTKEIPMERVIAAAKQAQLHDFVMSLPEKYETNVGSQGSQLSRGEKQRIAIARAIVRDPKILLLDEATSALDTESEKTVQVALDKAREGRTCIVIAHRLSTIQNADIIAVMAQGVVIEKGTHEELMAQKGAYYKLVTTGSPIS

[10] = Drug concentration at steady state in human at 43 to 130 mg, po QD after 24 hrs; assay type: ADME, organism-based; details: in vivo, read-out: Css
clinical = details: human, in vivo, po
[11] = Ratio of drug concentration at steady state in human at 100 to 200 mg, po TID after 8 hrs to IC50 for human MRP4 overexpressed in Sf9 insect cells; assay type: ADME, organism-based; details: in vivo
[12] = Ratio of drug concentration at steady state in human at 100 to 200 mg, po TID after 8 hrs to IC50 for human MRP3 overexpressed in Sf9 insect cells; assay type: ADME, organism-based; details: in vivo
[13] = AUC in human at 100 to 200 mg, po TID after 8 hrs; assay type: ADME, organism-based; details: in vivo
[14] = Drug concentration at steady state in human at 100 to 200 mg, po TID after 8 hrs; assay type: ADME, organism-based; details: in vivo, read-out: Css
[15] = Ratio of drug concentration at steady state in human at 100 to 200 mg, po TID after 8 hrs to IC50 for human BSEP overexpressed in Sf9 insect cells; assay type: ADME, organism-based; details: in vivo
[16] = AUC in human at 15 to 60 mg, po QD after 24 hrs; assay type: ADME, organism-based; details: in vivo
[17] = Drug concentration at steady state in human at 15 to 60 mg, po QD after 24 hrs; assay type: ADME, organism-based; details: in vivo, read-out: Css
[18] = Ratio of drug concentration at steady state in human at 15 to 60 mg, po QD after 24 hrs to IC50 for human MRP4 overexpressed in Sf9 insect cells; assay type: ADME, organism-based; details: in vivo
[19] = Ratio of drug concentration at steady state in human at 15 to 60 mg, po QD after 24 hrs to IC50 for human BSEP overexpressed in Sf9 insect cells; assay type: ADME, organism-based; details: in vivo

Compound: CS(=O)(=O)CCNCc1ccc(-c2ccc3ncnc(Nc4ccc(OCc5cccc(F)c5)c(Cl)c4)c3c2)o1.Cc1ccc(S(=O)(=O)O)cc1
concentration at 24 h [1]: 2.6 µM | IC50 [2]: > 133 µM | IC50 [3]: > 133 µM | IC50 [4]: > 133 µM | Ratio [5]: 0.4 | AUC at 24 h [6]: 62.3 µM·h

Compound: CC(=O)O.C[C@@H](O)[C@@H]1NC(=O)[C@H](CCCCN)NC(=O)[C@@H](Cc2c[nH]c3ccccc23)NC(=O)[C@H](Cc2ccccc2)NC(=O)[C@@H](NC(=O)[C@H](N)Cc2ccccc2)CSSC[C@@H](C(=O)N[C@H](CO)[C@@H](C)O)NC1=O [OCTREOTIDE ACETATE]
AUC at 8 h [7]: 42.2 µM·h | Ratio [8]: 0.565 | IC50 [2]: > 133 µM | IC50 [3]: > 133 µM | IC50 [4]: > 133 µM | concentration at 8 h [9]: 5.28 µM | IC50 (Bile salt export pump): 9.34 µM

concentration at 24 h [10]: 14.9 µM | IC50 [2]: > 133 µM | IC50 [3]: > 133 µM | IC50 [4]: > 133 µM | AUC at 24 h (clinical): 357 µM·h
Compound: CC(C)OC(=O)C(C)(C)Oc1ccc(C(=O)c2ccc(Cl)cc2)cc1 [FENOFIBRATE]

Ratio [11]: 1.338 | IC50 [2]: 16.7 µM | IC50 [4]: 85 µM | Ratio [12]: 0.263 | AUC at 8 h [13]: 179 µM·h | concentration at 8 h [14]: 22.3 µM
Compound: Cc1ccc(C(=O)c2cc(O)c(O)c([N+](=O)[O-])c2)cc1 [TOLCAPONE]
IC50 (Bile salt export pump): 36.6 µM | Ratio [15]: 0.611

AUC at 24 h [16]: 22.4 µM·h | IC50 [2]: 49.5 µM | concentration at 24 h [17]: 0.935 µM | IC50 [4]: > 133 µM | Ratio [18]: 0.019
Compound: CCc1ccc(CCOc2ccc(CC3SC(=O)NC3=O)cc2)nc1 (configuration not stated) [PIOGLITAZONE]
Ratio [19]: 2.338
